Source: PubChem BioAssay AID2060903 (Molecular Pharmacology Branch, DTP, NCI, 2025)

Tested on: 377384-186-R-J1-PDC complex spheroid viability
Assay: Anticancer human tumor 377384-186-R-J1-PDC patient-derived pancreatic carcinoma cell line growth inhibition [RAS]
Conditions: for IC50: curve of first compound; for viability, T/C: stronger effect = lower value
Procedure, shortened: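 Tumour cells grown as complex spheroids with HUVEC endothelial cells and mesenchymal stem cells, treated with RAS pathway inhibitor combinations. Each agent spans half-log steps from near clinical Cmax, or 10 microM where Cmax is unknown.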
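Also: spheroids exposed to compounds for seven days before readout.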

IC50 (second compound 0.000949 µM): < 31.6 nM
IC50 (second compound 0.003 µM): < 31.6 nM
IC50 (second compound 0.00949 µM): < 31.6 nM
IC50 (second compound 0.03 µM): < 31.6 nM
IC50 (second compound 0.0949 µM): < 31.6 nM
IC50 (second compound 0.3 µM): < 31.6 nM
SMILES: CC(=O)OC12COC1CC(O)C1(C)C(=O)C(O)C3=C(C)C(OC(=O)C(O)C(NC(=O)OC(C)(C)C)c4ccccc4)CC(O)(C(OC(=O)c4ccccc4)C21)C3(C)C (configuration not stated) + CCn1c(-c2cc(N3CCN(C)CC3)cnc2C(C)OC)c2c3cc(ccc31)-c1csc(n1)CC(NC(=O)C1CC1C)C(=O)N1CCCC(N1)C(=O)OCC(C)(C)C2
viability, T/C (second compound 0.000949 µM, first compound 0.0316 µM): 3.43%
viability, T/C (second compound 0.000949 µM, first compound 0.1 µM): 4.27%
viability, T/C (second compound 0.000949 µM, first compound 0.316 µM): 3.99%
viability, T/C (second compound 0.000949 µM, first compound 1 µM): 4.95%
viability, T/C (second compound 0.000949 µM, first compound 3.16 µM): 5.23%
viability, T/C (second compound 0.000949 µM, first compound 10 µM): 5.38%
viability, T/C (second compound 0.003 µM, first compound 0.0316 µM): 2.96%
viability, T/C (second compound 0.003 µM, first compound 0.1 µM): 1.47%
viability, T/C (second compound 0.003 µM, first compound 0.316 µM): 2.97%
viability, T/C (second compound 0.003 µM, first compound 1 µM): 2.21%
viability, T/C (second compound 0.003 µM, first compound 3.16 µM): 2.97%
viability, T/C (second compound 0.003 µM, first compound 10 µM): 2.38%
viability, T/C (second compound 0.00949 µM, first compound 0.0316 µM): 1.88%
viability, T/C (second compound 0.00949 µM, first compound 0.1 µM): 2.6%
viability, T/C (second compound 0.00949 µM, first compound 0.316 µM): 2%
viability, T/C (second compound 0.00949 µM, first compound 1 µM): 2.25%
viability, T/C (second compound 0.00949 µM, first compound 3.16 µM): 2.05%
viability, T/C (second compound 0.00949 µM, first compound 10 µM): 2.33%
viability, T/C (second compound 0.03 µM, first compound 0.0316 µM): 1.57%
viability, T/C (second compound 0.03 µM, first compound 0.1 µM): 1.84%
viability, T/C (second compound 0.03 µM, first compound 0.316 µM): 1.46%
viability, T/C (second compound 0.03 µM, first compound 1 µM): 1.65%
viability, T/C (second compound 0.03 µM, first compound 3.16 µM): 2.16%
viability, T/C (second compound 0.03 µM, first compound 10 µM): 1.64%
viability, T/C (second compound 0.0949 µM, first compound 0.0316 µM): 1.97%
viability, T/C (second compound 0.0949 µM, first compound 0.1 µM): 1.63%
viability, T/C (second compound 0.0949 µM, first compound 0.316 µM): 1.57%
viability, T/C (second compound 0.0949 µM, first compound 1 µM): 1.56%
viability, T/C (second compound 0.0949 µM, first compound 3.16 µM): 1.78%
viability, T/C (second compound 0.0949 µM, first compound 10 µM): 1.2%
viability, T/C (second compound 0.3 µM, first compound 0.0316 µM): 1.96%
viability, T/C (second compound 0.3 µM, first compound 0.1 µM): 1.22%
viability, T/C (second compound 0.3 µM, first compound 0.316 µM): 2.82%
viability, T/C (second compound 0.3 µM, first compound 1 µM): 1.84%
viability, T/C (second compound 0.3 µM, first compound 3.16 µM): 1.23%
viability, T/C (second compound 0.3 µM, first compound 10 µM): 1.25%
